Experimental data as given in PubChem BioAssay AID212 (DTP/NCI, 2004).
“And” between values parts separate entries of the source, which are not always exact repeats. Identical values can stand only once. Records with an inconclusive call do not appear.

System: BDF1 mice, colon carcinoma 38 sc, T/C %
Assay: NCI In Vivo Anticancer Drug Screen. Data for tumor model Colon Carcinoma 38 (subcutaneous) in B6D2F1 (BDF1) mice
Settings: endpoint: median tumor weight (est.), higher = larger tumour
Summary of the method: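 T/C readout: treated group (T) measurement over vehicle control group (C) measurement. Endpoint is survival or tumor size in mice bearing a transplanted tumor.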

[1] = dose: 8.0 mg/kg/injection, schedule: Q07DX002 (ip), vehicle: saline
[2] = dose: 16.0 mg/kg/injection, schedule: Q07DX002 (ip), vehicle: saline
[3] = dose: 32.0 mg/kg/injection, schedule: Q07DX002 (ip), vehicle: saline
[4] = dose: 64.0 mg/kg/injection, schedule: Q07DX002 (ip), vehicle: saline
[5] = dose: 2.0 mg/kg/injection, schedule: Q07DX002 (ip), vehicle: saline
[6] = dose: 4.0 mg/kg/injection, schedule: Q07DX002 (ip), vehicle: saline
[7] = dose: 12.5 mg/kg/injection, schedule: Q07DX002 (ip), vehicle: saline with Tween-80
[8] = dose: 25.0 mg/kg/injection, schedule: Q07DX002 (ip), vehicle: saline with Tween-80
[9] = dose: 50.0 mg/kg/injection, schedule: Q07DX002 (ip), vehicle: saline with Tween-80
[10] = dose: 100.0 mg/kg/injection, schedule: Q07DX002 (ip), vehicle: saline with Tween-80
[11] = dose: 200.0 mg/kg/injection, schedule: Q07DX002 (ip), vehicle: saline with Tween-80
[12] = dose: 25.0 mg/kg/injection, schedule: Q07DX002 (ip), vehicle: Klucel (hydroxypropylcellulose) (HPC)
[13] = dose: 100.0 mg/kg/injection, schedule: Q07DX002 (ip), vehicle: Klucel (hydroxypropylcellulose) (HPC)
[14] = dose: 200.0 mg/kg/injection, schedule: Q07DX002 (ip), vehicle: Klucel (hydroxypropylcellulose) (HPC)

Q: What does the source list for `C=C1C(=O)C23C(O)CC4C5(C)CCCC4(C(O)OC5)C2C(OC(C)=O)CC1C3O` (stereo unspecified)?
A: T/C (dose: 8.0 mg/kg/injection, schedule: Q07DX002 (ip), vehicle: Klucel (hydroxypropylcellulose) (HPC)): 72 % of control; T/C [1]: 124 % of control; T/C (dose: 16.0 mg/kg/injection, schedule: Q07DX002 (ip), vehicle: Klucel (hydroxypropylcellulose) (HPC)): 72 % of control; T/C [2]: 106 % of control; T/C (dose: 32.0 mg/kg/injection, schedule: Q07DX002 (ip), vehicle: Klucel (hydroxypropylcellulose) (HPC)): 106 % of control; T/C [3]: 117 % of control; T/C (dose: 64.0 mg/kg/injection, schedule: Q07DX002 (ip), vehicle: Klucel (hydroxypropylcellulose) (HPC)): 112 % of control; T/C [4]: 101 % of control; T/C (dose: 128.0 mg/kg/injection, schedule: Q07DX002 (ip), vehicle: Klucel (hydroxypropylcellulose) (HPC)): 79 % of control

Q: How did the T/C [5] turn out when `Nc1ccc2nc3ccc(N)cc3[n+](-c3ccccc3)c2c1` was run?
A: 95 % of control

Q: And the T/C [6]?
A: 74 % of control

Q: And the T/C (dose: 4.0 mg/kg/injection, schedule: Q07DX003 (ip), vehicle: saline)?
A: 28 % of control

Q: What about the T/C [1] of the same compound?
A: 96 % of control

Q: And the T/C (dose: 8.0 mg/kg/injection, schedule: Q07DX003 (ip), vehicle: saline)?
A: 43 % of control

Q: And the T/C [2]?
A: 72 % of control

Q: What about the T/C (dose: 16.0 mg/kg/injection, schedule: Q07DX003 (ip), vehicle: saline) of the same compound?
A: 46 % of control

Q: And the T/C [3]?
A: 97 % of control

Q: And the T/C (dose: 32.0 mg/kg/injection, schedule: Q07DX003 (ip), vehicle: saline)?
A: 43 % of control

Q: Which results are given for `CCN1C=C/C(=C\C=C/c2cc[n+](CC)c3ccccc23)c2ccccc21`?
A: T/C (dose: 0.06 mg/kg/injection, schedule: Q07DX002 (ip), vehicle: saline): 91 % of control; T/C (dose: 0.12 mg/kg/injection, schedule: Q07DX002 (ip), vehicle: saline): 120 % of control; T/C (dose: 62.0 micrograms/kg/injection, schedule: Q07DX002 (ip), vehicle: saline): 101 % of control; T/C (dose: 125.0 micrograms/kg/injection, schedule: Q07DX002 (ip), vehicle: saline): 123 % of control; T/C (dose: 250.0 micrograms/kg/injection, schedule: Q07DX002 (ip), vehicle: saline): 156 % of control

Q: How did the T/C [7] turn out when `O=C1N=C(Oc2ccccc2)SC1=O` was run?
A: 95 % of control

Q: What about the T/C [8] of the same compound?
A: 62 % of control and 80 % of control

Q: What about the T/C [9] of the same compound?
A: 53 % of control

Q: What about the T/C [10] of the same compound?
A: 88 % of control

Q: What about the T/C [11] of the same compound?
A: 118 % of control

Q: How did the T/C (dose: 6.25 mg/kg/injection, schedule: Q07DX003 (ip), vehicle: saline) turn out when `CC[n+]1ccc(Nc2ccc(NC(=O)c3ccc(C(=O)Nc4ccc(Nc5cc[n+](CC)c(N)n5)cc4)cc3)cc2)nc1N` was run?
A: 89 % of control

Q: And the T/C (dose: 6.25 mg/kg/injection, schedule: Q07DX003 (ip), vehicle: suspension in saline)?
A: 70 % of control

Q: And the T/C (dose: 12.5 mg/kg/injection, schedule: Q07DX003 (ip), vehicle: saline)?
A: 55 % of control

Q: What about the T/C (dose: 25.0 mg/kg/injection, schedule: Q07DX003 (ip), vehicle: saline) of the same compound?
A: 67 % of control

Q: And the T/C (dose: 25.0 mg/kg/injection, schedule: Q07DX003 (ip), vehicle: suspension in saline)?
A: 123 % of control

Q: And the T/C (dose: 50.0 mg/kg/injection, schedule: Q07DX003 (ip), vehicle: saline)?
A: 67 % of control

Q: What about the T/C (dose: 50.0 mg/kg/injection, schedule: Q07DX003 (ip), vehicle: suspension in saline) of the same compound?
A: 54 % of control

Q: And the T/C (dose: 100.0 mg/kg/injection, schedule: Q07DX003 (ip), vehicle: saline)?
A: 56 % of control

Q: And the T/C (dose: 100.0 mg/kg/injection, schedule: Q07DX003 (ip), vehicle: suspension in saline)?
A: 36 % of control

Q: Which results are given for `[I][Hg][CH2]C1OCCOC1[CH2][Hg][I]` (stereo unspecified)?
A: T/C (dose: 1.56 mg/kg/injection, schedule: Q07DX002 (ip), vehicle: Klucel (hydroxypropylcellulose) (HPC)): 93 % of control; T/C (dose: 3.12 mg/kg/injection, schedule: Q07DX002 (ip), vehicle: Klucel (hydroxypropylcellulose) (HPC)): 101 % of control; T/C (dose: 6.25 mg/kg/injection, schedule: Q07DX002 (ip), vehicle: Klucel (hydroxypropylcellulose) (HPC)): 92 % of control; T/C (dose: 12.5 mg/kg/injection, schedule: Q07DX002 (ip), vehicle: Klucel (hydroxypropylcellulose) (HPC)): 99 % of control and 106 % of control; T/C [12]: 83 % of control and 91 % of control

Q: `Cc1cc(NC(=S)SCc2ccc3c(c2)OCO3)ccc1Cl` was tested. Which T/C [13] did it give?
A: 111 % of control

Q: What about the T/C [14] of the same compound?
A: 82 % of control

Q: For `COC12C(COC(N)=O)C3=C(C(=O)C(C)=C(N)C3=O)N1CC1C2N1C` (stereo unspecified), which T/C [5] is on record?
A: 93 % of control

Q: What about the T/C [6] of the same compound?
A: 87 % of control

Q: And the T/C [1]?
A: 100 % of control

Q: What about the T/C [2] of the same compound?
A: 55 % of control

Q: What about the T/C [3] of the same compound?
A: 11 % of control

Q: What about the T/C [4] of the same compound?
A: 12 % of control

Q: With `N=[N+]=CC(=O)CCC(NC(=O)C(CCC(=O)C=[N+]=N)NC(=O)CCC(N)C(=O)O)C(=O)O` (stereo unspecified) as the compound, how does the T/C (dose: 3.12 mg/kg/injection, schedule: Q07DX003 (ip), vehicle: clinical formulation) read?
A: 54 % of control

Q: What about the T/C (dose: 3.12 mg/kg/injection, schedule: Q07DX003 (ip), vehicle: water) of the same compound?
A: 52 % of control

Q: What about the T/C (dose: 6.25 mg/kg/injection, schedule: Q07DX003 (ip), vehicle: clinical formulation) of the same compound?
A: 62 % of control

Q: And the T/C (dose: 6.25 mg/kg/injection, schedule: Q07DX003 (ip), vehicle: water)?
A: 48 % of control

Q: What about the T/C (dose: 12.5 mg/kg/injection, schedule: Q07DX003 (ip), vehicle: clinical formulation) of the same compound?
A: 46 % of control

Q: And the T/C (dose: 12.5 mg/kg/injection, schedule: Q07DX003 (ip), vehicle: water)?
A: 32 % of control

Q: And the T/C (dose: 25.0 mg/kg/injection, schedule: Q07DX003 (ip), vehicle: clinical formulation)?
A: 40 % of control

Q: What about the T/C (dose: 25.0 mg/kg/injection, schedule: Q07DX003 (ip), vehicle: water) of the same compound?
A: 44 % of control

Q: What about the T/C (dose: 50.0 mg/kg/injection, schedule: Q07DX003 (ip), vehicle: clinical formulation) of the same compound?
A: 18 % of control

Q: What about the T/C (dose: 50.0 mg/kg/injection, schedule: Q07DX003 (ip), vehicle: water) of the same compound?
A: 12 % of control

Q: For `Cc1c2cc(Cl)c3ccccc3c2c[n+]2ccccc12`, which T/C [7] is on record?
A: 94 % of control and 102 % of control

Q: What about the T/C [8] of the same compound?
A: 116 % of control

Q: What about the T/C [9] of the same compound?
A: 108 % of control and 111 % of control

Q: And the T/C [10]?
A: 88 % of control and 98 % of control

Q: What about the T/C [11] of the same compound?
A: 99 % of control

Q: What about the T/C (dose: 400.0 mg/kg/injection, schedule: Q07DX002 (ip), vehicle: saline with Tween-80) of the same compound?
A: 120 % of control

Q: With `CCOC(=O)CNC(=O)Sc1ccc(C(C)(C)C)cc1` as the compound, how does the T/C [12] read?
A: 117 % of control and 97 % of control

Q: And the T/C [13]?
A: 111 % of control and 95 % of control

Q: What about the T/C [14] of the same compound?
A: 78 % of control and 81 % of control

Q: And the T/C (dose: 400.0 mg/kg/injection, schedule: Q07DX002 (ip), vehicle: Klucel (hydroxypropylcellulose) (HPC))?
A: 78 % of control and 102 % of control

Q: And the T/C (dose: 800.0 mg/kg/injection, schedule: Q07DX002 (ip), vehicle: Klucel (hydroxypropylcellulose) (HPC))?
A: 54 % of control

Q: How did the T/C (dose: 1.5 mg/kg/injection, schedule: Q07DX002 (ip), vehicle: saline) turn out when `[Cl][Pt+2][Cl].[NH-]C1CCC1.[NH2-]` was run?
A: 95 % of control

Q: And the T/C (dose: 3.0 mg/kg/injection, schedule: Q07DX002 (ip), vehicle: saline)?
A: 64 % of control

Q: What about the T/C (dose: 12.0 mg/kg/injection, schedule: Q07DX002 (ip), vehicle: saline) of the same compound?
A: 43 % of control and 49 % of control

Q: What about the T/C (dose: 24.0 mg/kg/injection, schedule: Q07DX002 (ip), vehicle: saline) of the same compound?
A: 13 % of control

Q: `CCOC(=O)Nc1cc2c(c(N)n1)N=C(c1ccccc1)CN2` was tested. Which T/C (dose: 2.5 mg/kg/injection, schedule: Q07DX002 (ip), vehicle: saline with Tween-80) did it give?
A: 66 % of control

Q: And the T/C (dose: 5.0 mg/kg/injection, schedule: Q07DX002 (ip), vehicle: saline with Tween-80)?
A: 73 % of control

Q: What about the T/C (dose: 10.0 mg/kg/injection, schedule: Q07DX002 (ip), vehicle: saline with Tween-80) of the same compound?
A: 97 % of control

Q: Which T/C (dose: 1.25 mg/kg/injection, schedule: Q07DX002 (ip), vehicle: saline) does the source give for `O=NN(CCCl)C(=O)NC1[C@H](O)CCC[C@@H]1O` (stereo partly specified) here?
A: 68 % of control

Q: And the T/C (dose: 2.5 mg/kg/injection, schedule: Q07DX002 (ip), vehicle: saline)?
A: 53 % of control and 76 % of control

Q: And the T/C (dose: 10.0 mg/kg/injection, schedule: Q07DX002 (ip), vehicle: saline)?
A: 9 % of control and 26 % of control
